Assay results: patent US20100048950A1 (BOEHRINGER INGELHEIM INTERNATIONAL GMBH, priority 2007, published 2010)

These compounds were tested against T1, human glucocorticoid receptor (GR) complex (Homo sapiens, UniProt P04150) (assay: Glucocorticoid receptor competitive binding assay (fluorescence polarization)). Conditions: competition with TAMRA-labeled dexamethasone, read-out: potent activity (IC50) in the GR binding assay.
T1 construct: made in house; host or cells: insect expression system (baculovirus lysate)
T1 sequence (P04150 1-777): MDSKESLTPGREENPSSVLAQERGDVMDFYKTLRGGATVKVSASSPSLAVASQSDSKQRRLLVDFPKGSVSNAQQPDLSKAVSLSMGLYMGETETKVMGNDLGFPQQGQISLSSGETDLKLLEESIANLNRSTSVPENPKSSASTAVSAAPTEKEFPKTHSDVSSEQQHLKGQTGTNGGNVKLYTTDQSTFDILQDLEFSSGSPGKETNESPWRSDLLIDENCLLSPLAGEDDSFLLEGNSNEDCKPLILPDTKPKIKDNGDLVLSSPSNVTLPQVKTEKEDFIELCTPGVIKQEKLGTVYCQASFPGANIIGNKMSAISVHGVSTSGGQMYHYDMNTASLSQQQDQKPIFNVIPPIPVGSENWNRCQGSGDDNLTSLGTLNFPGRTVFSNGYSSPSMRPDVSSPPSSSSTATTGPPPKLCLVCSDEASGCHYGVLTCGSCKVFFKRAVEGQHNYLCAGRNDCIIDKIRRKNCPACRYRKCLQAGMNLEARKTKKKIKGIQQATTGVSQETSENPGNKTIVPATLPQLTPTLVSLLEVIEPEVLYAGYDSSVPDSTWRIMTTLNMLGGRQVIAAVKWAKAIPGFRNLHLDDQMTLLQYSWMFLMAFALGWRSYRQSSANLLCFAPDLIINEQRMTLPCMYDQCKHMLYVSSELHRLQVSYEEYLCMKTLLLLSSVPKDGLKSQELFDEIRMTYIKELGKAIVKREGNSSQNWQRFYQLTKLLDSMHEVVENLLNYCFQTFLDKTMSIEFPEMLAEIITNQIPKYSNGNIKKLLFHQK
Procedure, shortened: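 Human GR complex in baculovirus insect-cell lysate (1:170) competed against 15 nM TAMRA-dexamethasone stock for 1 h at room temperature. Buffer: TES/KCl/molybdate/EDTA/CHAPS/glycerol/DTT, pH 7.4, 1% DMSO final. FP read at 550/580 nm; IC50 from 4-parameter logistic fit.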

SMILES	IC50
Cc1cc(C)c(S(=O)(=O)NC(COc2cccc3c2CCCC3)C(F)(F)F)c(C)c1 (centres unmarked) [2,4,6-Trimethyl-N-[2,2,2-trifluoro-1-(5,6,7,8-tetrahydronaphthalen-1-yloxymethyl)ethyl]benzenesulfonamide]	≤ 100 nM
Cc1cc(C)c(S(=O)(=O)NC(COc2cc(Cl)ccc2C)C(F)(F)F)c(C)c1 (centres unmarked) [N-[1-(5-Chloro-2-methylphenoxymethyl)-2,2,2-trifluoroethyl]-2,4,6-trimethylbenzenesulfonamide]	≤ 100 nM
Cc1cc(C)c(S(=O)(=O)NC(CNc2cccc(Cl)c2C#N)C(F)(F)F)c(C)c1 (centres unmarked) [N-{1-[(3-Chloro-2-cyanophenylamino)methyl]-2,2,2-trifluoroethyl}-2,4,6-trimethylbenzenesulfonamide]	≤ 100 nM
Cc1cc(C)c(S(=O)(=O)NC(COc2ccccc2C#N)C(F)(F)F)c(C)c1 (centres unmarked) [N-[1-(2-Cyanophenoxymethyl)-2,2,2-trifluoroethyl]-2,4,6-trimethylbenzenesulfonamide]	≤ 100 nM
COC(=O)c1ccccc1NCC(NS(=O)(=O)c1c(C)cc(C)cc1C)C(F)(F)F (centres unmarked) [2-[3,3,3-Trifluoro-2-(2,4,6-trimethylbenzenesulfonylamino)propylamino]benzoic acid methyl ester]	≤ 100 nM
Cc1cc(C)c(S(=O)(=O)NC(COc2ccc(F)c(F)c2F)C(F)(F)F)c(C)c1 (centres unmarked) [2,4,6-Trimethyl-N-[2,2,2-trifluoro-1-(2,3,4-trifluorophenoxymethyl)ethyl]benzenesulfonamide]	≤ 100 nM
Cc1cc(C)c(S(=O)(=O)NC(COc2ccc(Br)cc2)C(F)(F)F)c(C)c1 (centres unmarked) [N-[1-(4-Bromophenoxymethyl)-2,2,2-trifluoroethyl]-2,4,6-trimethylbenzenesulfonamide]	≤ 100 nM
CCc1ccccc1SCC(NS(=O)(=O)c1c(C)cc(C)cc1C)C(F)(F)F (centres unmarked) [N-[1-(2-Ethylphenylsulfanylmethyl)-2,2,2-trifluoroethyl]-2,4,6-trimethylbenzenesulfonamide]	≤ 100 nM
COc1ccccc1SCC(NS(=O)(=O)c1c(C)cc(C)cc1C)C(F)(F)F (centres unmarked) [2,4,6-Trimethyl-N-[2,2,2-trifluoro-1-(2-methoxyphenylsulfanylmethyl)ethyl]benzenesulfonamide]	≤ 100 nM
Cc1cc(C)cc(NCC(NS(=O)(=O)c2c(C)cc(C)cc2C)C(C)C)c1 (centres unmarked) [N-{1-[(3,5-Dimethylphenylamino)methyl]-2-methylpropyl}-2,4,6-trimethylbenzenesulfonamide]	≤ 100 nM
Cc1cc(C)c(S(=O)(=O)NC(COc2ccc(C(F)(F)F)cc2)C(F)(F)F)c(C)c1 (centres unmarked) [2,4,6-Trimethyl-N-[2,2,2-trifluoro-1-(4-trifluoromethylphenoxymethyl)ethyl]benzenesulfonamide]	≤ 100 nM
Cc1cc(C)c(S(=O)(=O)NC(CSc2ccccc2)C(F)(F)F)c(C)c1 (centres unmarked) [2,4,6-Trimethyl-N-(2,2,2-trifluoro-1-phenylsulfanylmethylethyl)benzenesulfonamide]	≤ 100 nM
Cc1cc(C)c(S(=O)(=O)NC(CSc2ccccc2C(C)C)C(F)(F)F)c(C)c1 (centres unmarked) [2,4,6-Trimethyl-N-[2,2,2-trifluoro-1-(2-isopropylphenylsulfanylmethyl)ethyl]benzenesulfonamide]	≤ 100 nM
CCc1cccc(C)c1NCC(NS(=O)(=O)c1c(C)cc(C)cc1C)C(F)(F)F (centres unmarked) [N-{1-[(2-Ethyl-6-methylphenylamino)methyl]-2,2,2-trifluoroethyl}-2,4,6-trimethylbenzenesulfonamide]	≤ 100 nM
Cc1cc(C)c(S(=O)(=O)NC(CSc2cccc(C(F)(F)F)c2)C(F)(F)F)c(C)c1 (centres unmarked) [2,4,6-Trimethyl-N-[2,2,2-trifluoro-1-(3-trifluoromethylphenylsulfanylmethyl)ethyl]benzenesulfonamide]	≤ 100 nM
CC[C@@H](CNc1cccc2ccccc12)NS(=O)(=O)c1c(C)cc(C)cc1C [2,4,6-Trimethyl-N—[(S)-1-(naphthalen-1-ylaminomethyl)propyl]benzenesulfonamide]	≤ 100 nM

SMILES	IC50
COc1ccc(OC)c(SCC(NS(=O)(=O)c2c(C)cc(C)cc2C)C(F)(F)F)c1 (centres unmarked) [N-[1-(2,5-Dimethoxyphenylsulfanylmethyl)-2,2,2-trifluoroethyl]-2,4,6-trimethylbenzenesulfonamide]	≤ 100 nM
Cc1cc(C)c(S(=O)(=O)NC(CNc2ccccc2)C(F)(F)F)c(C)c1 (centres unmarked) [2,4,6-Trimethyl-N-(2,2,2-trifluoro-1-phenylaminomethylethyl)benzenesulfonamide]	≤ 100 nM
CCOc1cccc(SCC(NS(=O)(=O)c2c(C)cc(C)cc2C)C(F)(F)F)c1 (centres unmarked) [N-[1-(3-Ethoxyphenylsulfanylmethyl)-2,2,2-trifluoroethyl]-2,4,6-trimethylbenzenesulfonamide]	≤ 100 nM
Cc1cc(C)c(S(=O)(=O)NC(COc2cccc3c2CCC3=O)C(F)(F)F)c(C)c1 (centres unmarked) [2,4,6-Trimethyl-N-[2,2,2-trifluoro-1-(1-oxoindan-4-yloxymethyl)ethyl]benzenesulfonamide]	≤ 100 nM
Cc1cc(C)c(S(=O)(=O)NC(CNc2ccc(C#N)c(Cl)c2)C(F)(F)F)c(C)c1 (centres unmarked) [N-{1-[(3-Chloro-4-cyanophenylamino)methyl]-2,2,2-trifluoroethyl}-2,4,6-trimethylbenzenesulfonamide]	≤ 100 nM
CC[C@@H](CNc1ccc(C)cc1C)NS(=O)(=O)c1c(C)cc(C)cc1C [N-{(S)-1-[(2,4-Dimethylphenylamino)methyl]propyl}-2,4,6-trimethylbenzenesulfonamide]	≤ 100 nM
Cc1cc(C)c(S(=O)(=O)NC(CSc2ccccc2C(C)(C)C)C(F)(F)F)c(C)c1 (centres unmarked) [N-[1-(2-tert-Butylphenylsulfanylmethyl)-2,2,2-trifluoroethyl]-2,4,6-trimethylbenzenesulfonamide]	≤ 100 nM
Cc1cc(C)c(S(=O)(=O)NC(COc2cc(Cl)cc(Cl)c2)C(F)(F)F)c(C)c1 (centres unmarked) [N-[1-(3,5-Dichlorophenoxymethyl)-2,2,2-trifluoroethyl]-2,4,6-trimethylbenzenesulfonamide]	≤ 100 nM
COC(=O)c1cccc(NCC(NS(=O)(=O)c2c(C)cc(C)cc2C)C(F)(F)F)c1 (centres unmarked) [3-[3,3,3-Trifluoro-2-(2,4,6-trimethylbenzenesulfonylamino)propylamino]benzoic acid methyl ester]	≤ 100 nM
Cc1cc(C)cc(SCC(NS(=O)(=O)c2c(C)cc(C)cc2C)C(F)(F)F)c1 (centres unmarked) [N-[1-(3,5-Dimethylphenylsulfanylmethyl)-2,2,2-trifluoroethyl]-2,4,6-trimethylbenzenesulfonamide]	≤ 100 nM
Cc1cc(C)c(S(=O)(=O)NC(CSc2ccccc2Br)C(F)(F)F)c(C)c1 (centres unmarked) [N-[1-(2-Bromophenylsulfanylmethyl)-2,2,2-trifluoroethyl]-2,4,6-trimethylbenzenesulfonamide]	≤ 100 nM
Cc1cc(C)c(S(=O)(=O)NC(CSc2cccc(OC(F)(F)F)c2)C(F)(F)F)c(C)c1 (centres unmarked) [2,4,6-Trimethyl-N-[2,2,2-trifluoro-1-(3-trifluoromethoxyphenylsulfanylmethyl)ethyl]benzenesulfonamide]	≤ 100 nM
Cc1cc(C)c(S(=O)(=O)NC(COc2cccc(Br)c2)C(F)(F)F)c(C)c1 (centres unmarked) [N-[1-(3-Bromophenoxymethyl)-2,2,2-trifluoroethyl]-2,4,6-trimethylbenzenesulfonamide]	≤ 100 nM
COC(=O)c1ccccc1SCC(NS(=O)(=O)c1c(C)cc(C)cc1C)C(F)(F)F (centres unmarked) [2-[3,3,3-Trifluoro-2-(2,4,6-trimethylbenzenesulfonylamino)propylsulfanyl]benzoic acid methyl ester]	≤ 100 nM
Cc1cc(C)c(S(=O)(=O)NC(CNc2c(F)cc(F)cc2F)C(F)(F)F)c(C)c1 (centres unmarked) [2,4,6-Trimethyl-N-{2,2,2-trifluoro-1-[(2,4,6-trifluorophenylamino)methyl]ethyl}benzenesulfonamide]	≤ 100 nM
Cc1cc(C)c(S(=O)(=O)NC(COc2cc(C)ccc2Cl)C(F)(F)F)c(C)c1 (centres unmarked) [N-[1-(2-Chloro-5-methylphenoxymethyl)-2,2,2-trifluoroethyl]-2,4,6-trimethylbenzenesulfonamide]	≤ 100 nM
